Reference: ChEMBL document CHEMBL1201862, “PubChem BioAssay data set” (2004)
The source made the active and inactive calls.

Assays:
[1] = biological target: Peroxisome proliferator-activated receptor gamma/Nuclear receptor coactivator 2 (Homo sapiens, UniProt P37231); assay type: functional;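 further: agonist potency for raising coactivator recruitment to the receptor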
[2] = biological target: Peroxisome proliferator-activated receptor gamma/Nuclear receptor coactivator 1 (Homo sapiens, UniProt P37231); assay type: functional;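 further: agonist potency as compounds enhance coactivator SRC-1 recruitment to PPARgamma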
[3] = biological target: Peroxisome proliferator-activated receptor gamma/Nuclear receptor coactivator 3 (Homo sapiens, UniProt P37231); assay type: functional;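 further: agonist potency for raising coactivator recruitment to the receptor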
[4] = LGR2 antagonists, dose response, cell-based, HEK293, CRE-luciferase reporter, cherry pick, set 2 (AID 743343); assay type: functional;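 further: transfected cells were stimulated with diluted bursicon conditioned medium after compound addition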
[5] = MC4R antagonists, dose response, counter-screen for LGR2 antagonist project, cell-based, plate reader, cherry pick (AID 743444); assay type: functional;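 further: transfected HEK 293 cells stimulated with alpha-MSH peptide; potency of inhibitors of the alpha-MSH evoked signal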
[6] = system: BJ; experiment: cytotoxicity toward Ras-transformed BJeLR fibroblasts, dose response, cell-based, alamar blue fluorescence, cherrypicked samples (AID 2631); assay type: functional; details: Homo sapiens;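 further: confirmatory dose-response assay in RAS-dependent BJ fibroblasts engineered with TERT, LT and ST, with cytotoxicity read by fluorescence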
[7] = Luminescence Cell-Based Dose Confirmation HTS to Identify Inhibitors of Platelet Dense Granule Release. [Related pubchem assays: 1663 (Primary HTS), 1678 (Summary of Project)]; assay type: functional
[8] = cytotoxicity toward DRD oncogenic fibroblasts, dose response, cell-based, non-viral oncogenic, luminescence (AID 1934); assay type: functional; details: Homo sapiens
[9] = system: BJ; experiment: cytotoxicity toward BJ-TERT-LT-ST fibroblasts, dose response, cell-based, RAS-independent, luminescence (AID 1935); assay type: functional; details: Homo sapiens;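 further: BJ fibroblasts immortalized with TERT plus LT and ST oncogenes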
[10] = HEK293 cell cytotoxicity, dose response, cytotoxicity control, plate reader, cherry-picked samples (AID 743446); assay type: functional, cell-based
[11] = HepG2 cell cytotoxicity, dose response, cytotoxicity control, plate reader, cherry-pick, antagonist series (AID 743416); assay type: functional, cell-based
[12] = biological target: Luciferin 4-monooxygenase (Photinus pyralis, UniProt P08659); experiment: firefly luciferase enzyme inhibitors, dose response, biochemical, luminescence (AID 1891)
[13] = system: BJ; experiment: cytotoxicity toward BJ-TERT fibroblasts, dose response, cell-based, RAS-independent, luminescence (AID 1933); assay type: functional; details: Homo sapiens
[14] = system: INS1; experiment: beta cell apoptosis inhibitors, cytokine rescue, dose response, luminescence, retest (AID 449756); assay type: functional, cell-based; details: Rattus norvegicus;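 further: cell death triggered by IL-1 beta plus TNF-alpha plus IFN-gamma mixture; protective hits raise ATP signal compared with cytokine alone wells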
[15] = A549 cell cytotoxicity, dose response, cytotoxicity control, plate reader, cherry-pick, antagonist series (AID 743412); assay type: functional, cell-based
[16] = biological target: T1, Oxysterols receptor LXR-beta (Homo sapiens, UniProt P55055); assay type: functional, cell-based;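 further: agonist activity at LXR measured by a cell-based luminescence readout across a dose range, run as a counterscreen for daf-12 agonists; HEK293 cells with Gal4-LXR fusion and GAL4-driven luciferase reporter; potency for activation of Gal4-LXR reporter so compounds are agonists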
T1 sequence (P55055 whole entry): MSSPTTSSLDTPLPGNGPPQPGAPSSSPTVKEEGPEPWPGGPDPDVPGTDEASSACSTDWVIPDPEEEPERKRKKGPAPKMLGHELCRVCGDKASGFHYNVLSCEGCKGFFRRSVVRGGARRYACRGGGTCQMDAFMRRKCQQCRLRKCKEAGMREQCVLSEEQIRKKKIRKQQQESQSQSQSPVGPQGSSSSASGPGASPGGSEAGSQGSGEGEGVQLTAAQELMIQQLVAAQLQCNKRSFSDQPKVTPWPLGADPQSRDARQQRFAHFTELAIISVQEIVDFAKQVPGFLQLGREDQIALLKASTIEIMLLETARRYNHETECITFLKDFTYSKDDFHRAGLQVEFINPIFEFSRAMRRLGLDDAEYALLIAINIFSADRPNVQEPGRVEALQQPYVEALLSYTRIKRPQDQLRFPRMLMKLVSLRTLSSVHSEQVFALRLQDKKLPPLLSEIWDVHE

[17] = C. albicans growth with fluconazole, confirmation, fluorescence, retest (AID 2467); assay type: functional, cell-based
[18] = biological target: ATP-dependent molecular chaperone HSP82 (Candida albicans (strain WO-1) (Yeast), UniProt C4YTQ8); experiment: loss of DOC-induced GRE-beta-galactosidase reporter signal, dose response, Hsp90 inhibitor project, S. cerevisiae, luminescence (AID 2400); assay type: functional, cell-based;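 further: beta-galactosidase luminescence from glucocorticoid response element reporter as proxy for Hsp90 function; inhibitor potency where signal loss means Hsp90 inhibition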
[19] = biological target: SWI/SNF-related matrix-associated actin-dependent regulator of chromatin subfamily A member 2 (Homo sapiens, UniProt P51531); experiment: Luminescence-based cell-based high throughput dose response assay to identify activators of the function of SWI/SNF related, matrix associated, actin dependent regulator of chromatin, subfamily a, member 2 (SMARCA2, BRM).; assay type: functional
[20] = biological target: T2, Serine/threonine-protein phosphatase (Candida dubliniensis (strain CD36 / CBS 7987 / NCPF 3949 / NRRLY-17841) (Yeast), UniProt B9W6M3); experiment: calcineurin pathway inhibitors in yeast reporter, dose response, S. cerevisiae, CDRE-lacZ, luminescence, secondary (AID 2388); assay type: functional, cell-based;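 further: yeast reporter cells carrying a calcineurin-responsive lacZ construct stimulated with calcium chloride; luminescent beta-galactosidase reporter signal in whole cells rather than isolated phosphatase activity; potency for inhibition where a drop in reporter signal means calcineurin blockade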
T2 sequence (B9W6M3 whole entry): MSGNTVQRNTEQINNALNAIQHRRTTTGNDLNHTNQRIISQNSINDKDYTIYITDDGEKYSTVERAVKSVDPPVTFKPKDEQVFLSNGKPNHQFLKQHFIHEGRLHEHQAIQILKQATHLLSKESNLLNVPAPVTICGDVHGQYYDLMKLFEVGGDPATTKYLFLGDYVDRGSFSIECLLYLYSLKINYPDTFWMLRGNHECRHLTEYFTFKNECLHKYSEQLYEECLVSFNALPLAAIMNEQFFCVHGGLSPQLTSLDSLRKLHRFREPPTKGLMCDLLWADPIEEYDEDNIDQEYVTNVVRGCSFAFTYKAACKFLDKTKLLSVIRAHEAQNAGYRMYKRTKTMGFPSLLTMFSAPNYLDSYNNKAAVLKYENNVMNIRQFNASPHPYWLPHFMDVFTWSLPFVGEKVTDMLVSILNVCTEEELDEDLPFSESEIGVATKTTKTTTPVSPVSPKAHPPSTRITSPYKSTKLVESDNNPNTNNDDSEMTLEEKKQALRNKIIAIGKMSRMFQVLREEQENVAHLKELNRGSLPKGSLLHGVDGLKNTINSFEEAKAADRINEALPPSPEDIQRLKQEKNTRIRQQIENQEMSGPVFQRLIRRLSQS

[21] = Counterscreen for activators of the function of SWI/SNF related, matrix associated, actin dependent regulator of chromatin, subfamily a, member 2 (SMARCA2, BRM): Luminescence-based cell-based high throughput dose response assay to identify non-selective compounds using the VP16 reporter assay.; assay type: functional
[22] = NIH-3T3 fibroblast cytotoxicity, dose response, cytotoxicity control, cell-based, fluorescence, Alamar Blue, secondary assay (AID 2327); assay type: functional;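 further: NIH-3T3 mouse fibroblasts cultured with fluconazole at 8 µg/mL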
[23] = IGROV1 ovarian cancer cell cytotoxicity, dose response, PAX8 inhibitor project, plate reader, dry powder samples (AID 743043); assay type: functional, cell-based; details: IGROV-1
[24] = biological target: Paired box protein Pax-8 (Homo sapiens, UniProt Q06710); experiment: inhibitors of PAX8-driven TPO luciferase reporter, dose response, RMG-I cells, cherry-pick (AID 687027); assay type: functional, cell-based;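 further: luciferase reporter driven by Pax8 target thyroperoxidase promoter measured by SteadyGlo luminescence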
[25] = HepG2 cell cytotoxicity, dose response, cytotoxicity control, cherry-picked samples (AID 1159577); assay type: functional, cell-based
[26] = P. falciparum Dd2 growth inhibitors, dose response, SYBR Green, cherry-picked samples (AID 1159567); assay type: functional, cell-based
[27] = biological target: T3, Polyadenylate-binding protein 1 (Homo sapiens, UniProt P11940); experiment: PABP1 MLLE–PAM2 binding inhibitor potency, dose response, biochemical, fluorescence polarization, FITC-PAM2 peptide (AID 602259); assay type: functional; details: read-out: IC50_Mean
[28] = biological target: T3, Polyadenylate-binding protein 1; experiment: PABP1 MLLE–PAM2 interaction inhibitors, dose response, miRNA deadenylation inhibitor project, biochemical, fluorescence polarization, Cy5-PAM2 peptide, secondary (AID 602260); assay type: functional; details: read-out: IC50_Mean
[29] = biological target: Disintegrin and metalloproteinase domain-containing protein 17 (Homo sapiens, UniProt P78536); experiment: exosite inhibitors of ADAM17, dose response, biochemical (AID 743260)
[30] = human group III sPLA2 inhibitors, dose response, biochemical, QFRET, IC50 (AID 743457);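 further: green fluorescence rise as the enzyme cleaves BODIPY PC-A2 in liposomes; potency for inhibition of the enzyme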
[31] = non-specific cell cytotoxicity, dose response, cytotoxicity control for PAX8 inhibitor project, plate reader, dry powder samples (AID 743021); assay type: functional, cell-based
[32] = cytotoxicity in OVCAR8 ovarian cancer cells, dose response, PAX8 project, cell-based, plate reader, dry powder samples (AID 743197); assay type: functional; details: OVCAR-8
[33] = NIH:OVCAR-3 ovarian cancer cell cytotoxicity, dose response, PAX8 inhibitor project, plate reader, dry powder samples (AID 743044); assay type: functional, cell-based

T3 sequence (P11940 whole entry): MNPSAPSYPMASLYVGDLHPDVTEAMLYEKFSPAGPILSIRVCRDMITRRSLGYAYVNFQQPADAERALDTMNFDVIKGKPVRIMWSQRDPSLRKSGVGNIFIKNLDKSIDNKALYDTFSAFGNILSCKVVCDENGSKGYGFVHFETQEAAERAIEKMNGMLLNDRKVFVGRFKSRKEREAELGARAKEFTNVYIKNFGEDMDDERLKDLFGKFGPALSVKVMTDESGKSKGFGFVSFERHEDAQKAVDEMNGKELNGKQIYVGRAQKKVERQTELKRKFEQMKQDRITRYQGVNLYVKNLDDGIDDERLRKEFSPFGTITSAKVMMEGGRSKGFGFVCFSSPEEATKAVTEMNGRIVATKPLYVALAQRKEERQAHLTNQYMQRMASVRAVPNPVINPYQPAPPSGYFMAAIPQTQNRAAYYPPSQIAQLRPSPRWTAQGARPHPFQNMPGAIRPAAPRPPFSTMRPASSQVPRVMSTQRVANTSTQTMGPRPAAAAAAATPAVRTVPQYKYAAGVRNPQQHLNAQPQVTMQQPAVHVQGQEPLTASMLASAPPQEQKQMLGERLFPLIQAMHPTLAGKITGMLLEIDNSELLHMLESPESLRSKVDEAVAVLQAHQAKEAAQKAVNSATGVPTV
Sequence of Paired box protein Pax-8 (Q06710 whole entry): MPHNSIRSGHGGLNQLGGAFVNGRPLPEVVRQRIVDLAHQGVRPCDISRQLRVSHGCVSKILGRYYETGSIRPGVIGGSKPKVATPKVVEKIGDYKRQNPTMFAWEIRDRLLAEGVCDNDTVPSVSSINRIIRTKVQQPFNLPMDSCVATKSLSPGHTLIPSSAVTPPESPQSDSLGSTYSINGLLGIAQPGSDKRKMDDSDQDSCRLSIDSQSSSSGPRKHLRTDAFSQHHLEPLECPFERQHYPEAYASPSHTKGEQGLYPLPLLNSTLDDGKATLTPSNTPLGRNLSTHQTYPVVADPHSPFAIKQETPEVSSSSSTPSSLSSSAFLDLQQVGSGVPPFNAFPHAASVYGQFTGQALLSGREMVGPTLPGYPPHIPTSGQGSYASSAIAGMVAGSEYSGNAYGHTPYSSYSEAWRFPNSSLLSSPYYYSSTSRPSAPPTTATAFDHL
Sequence of SWI/SNF-related matrix-associated actin-dependent regulator of chromatin subfamily A member 2 (P51531 whole entry): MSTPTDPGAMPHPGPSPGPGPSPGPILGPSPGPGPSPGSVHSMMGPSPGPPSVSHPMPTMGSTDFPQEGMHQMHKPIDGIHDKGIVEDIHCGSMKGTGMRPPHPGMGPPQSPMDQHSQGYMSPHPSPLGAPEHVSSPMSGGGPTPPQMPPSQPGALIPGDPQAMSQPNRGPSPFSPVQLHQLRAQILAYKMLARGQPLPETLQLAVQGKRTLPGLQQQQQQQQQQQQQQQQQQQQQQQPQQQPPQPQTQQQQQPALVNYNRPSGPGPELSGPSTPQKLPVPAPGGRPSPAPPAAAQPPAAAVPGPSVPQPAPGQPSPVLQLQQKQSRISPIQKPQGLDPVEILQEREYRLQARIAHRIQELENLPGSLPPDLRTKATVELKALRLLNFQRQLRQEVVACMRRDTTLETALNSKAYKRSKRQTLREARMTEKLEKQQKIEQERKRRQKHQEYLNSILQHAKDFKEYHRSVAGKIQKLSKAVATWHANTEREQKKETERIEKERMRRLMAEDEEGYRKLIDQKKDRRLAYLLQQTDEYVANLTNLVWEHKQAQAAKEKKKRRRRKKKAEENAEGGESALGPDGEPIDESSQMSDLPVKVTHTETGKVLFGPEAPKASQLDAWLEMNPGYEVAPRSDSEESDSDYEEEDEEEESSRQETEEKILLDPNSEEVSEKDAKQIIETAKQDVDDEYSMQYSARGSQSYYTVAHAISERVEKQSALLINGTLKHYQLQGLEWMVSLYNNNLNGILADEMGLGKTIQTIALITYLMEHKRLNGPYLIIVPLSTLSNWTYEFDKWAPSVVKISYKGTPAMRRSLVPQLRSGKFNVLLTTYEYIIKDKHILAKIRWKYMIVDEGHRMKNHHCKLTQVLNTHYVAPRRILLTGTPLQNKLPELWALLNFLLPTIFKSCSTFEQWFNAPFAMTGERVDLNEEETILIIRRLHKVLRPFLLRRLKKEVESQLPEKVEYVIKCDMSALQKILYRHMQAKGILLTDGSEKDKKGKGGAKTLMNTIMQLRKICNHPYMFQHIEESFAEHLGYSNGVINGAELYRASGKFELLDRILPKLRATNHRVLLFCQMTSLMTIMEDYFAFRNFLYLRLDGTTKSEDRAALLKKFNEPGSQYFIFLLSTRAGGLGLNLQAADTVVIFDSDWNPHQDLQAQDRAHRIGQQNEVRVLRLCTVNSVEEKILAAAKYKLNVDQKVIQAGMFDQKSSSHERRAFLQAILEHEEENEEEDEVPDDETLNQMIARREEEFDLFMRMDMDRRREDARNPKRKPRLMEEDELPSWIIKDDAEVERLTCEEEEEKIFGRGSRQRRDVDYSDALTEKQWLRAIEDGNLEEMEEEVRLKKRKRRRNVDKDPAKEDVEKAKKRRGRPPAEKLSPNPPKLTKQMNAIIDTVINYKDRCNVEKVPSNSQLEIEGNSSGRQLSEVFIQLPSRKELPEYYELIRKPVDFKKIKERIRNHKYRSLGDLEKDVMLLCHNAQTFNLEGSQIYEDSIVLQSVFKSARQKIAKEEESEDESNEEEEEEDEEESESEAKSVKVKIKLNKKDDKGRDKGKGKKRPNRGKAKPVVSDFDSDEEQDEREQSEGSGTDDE
Sequence of Luciferin 4-monooxygenase (P08659 whole entry): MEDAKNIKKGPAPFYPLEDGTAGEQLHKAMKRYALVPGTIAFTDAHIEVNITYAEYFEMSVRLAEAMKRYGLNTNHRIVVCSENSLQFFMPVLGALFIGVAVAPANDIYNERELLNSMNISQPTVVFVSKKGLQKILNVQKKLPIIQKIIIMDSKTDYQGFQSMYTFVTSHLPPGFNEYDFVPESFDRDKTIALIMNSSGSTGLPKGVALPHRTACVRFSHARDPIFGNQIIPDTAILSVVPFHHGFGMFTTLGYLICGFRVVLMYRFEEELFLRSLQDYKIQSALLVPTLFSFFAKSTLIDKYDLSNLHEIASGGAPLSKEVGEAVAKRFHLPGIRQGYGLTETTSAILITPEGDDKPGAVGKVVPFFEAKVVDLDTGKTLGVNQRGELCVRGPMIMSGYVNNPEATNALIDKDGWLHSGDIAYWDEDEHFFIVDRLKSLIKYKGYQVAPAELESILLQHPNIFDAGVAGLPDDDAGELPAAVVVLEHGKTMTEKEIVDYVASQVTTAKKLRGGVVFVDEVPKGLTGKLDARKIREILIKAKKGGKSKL
Sequence of ATP-dependent molecular chaperone HSP82 (C4YTQ8 whole entry): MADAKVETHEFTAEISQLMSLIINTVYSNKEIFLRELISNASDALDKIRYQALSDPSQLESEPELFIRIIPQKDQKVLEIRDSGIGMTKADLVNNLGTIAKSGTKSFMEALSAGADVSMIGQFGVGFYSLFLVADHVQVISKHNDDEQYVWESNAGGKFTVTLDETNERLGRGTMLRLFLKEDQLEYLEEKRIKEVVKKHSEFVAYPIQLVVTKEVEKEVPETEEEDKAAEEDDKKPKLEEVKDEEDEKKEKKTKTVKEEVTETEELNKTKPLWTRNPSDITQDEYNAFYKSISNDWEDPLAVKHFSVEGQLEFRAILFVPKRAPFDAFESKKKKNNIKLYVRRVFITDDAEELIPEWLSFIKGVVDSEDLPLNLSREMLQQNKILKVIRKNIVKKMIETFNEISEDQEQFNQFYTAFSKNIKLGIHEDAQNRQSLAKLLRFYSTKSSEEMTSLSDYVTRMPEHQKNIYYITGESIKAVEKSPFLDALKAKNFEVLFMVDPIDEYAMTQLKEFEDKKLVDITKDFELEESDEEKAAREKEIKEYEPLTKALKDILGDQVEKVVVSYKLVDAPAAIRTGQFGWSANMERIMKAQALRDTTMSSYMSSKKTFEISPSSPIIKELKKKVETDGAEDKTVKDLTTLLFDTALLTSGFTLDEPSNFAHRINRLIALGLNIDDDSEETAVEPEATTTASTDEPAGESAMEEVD
Sequence of Disintegrin and metalloproteinase domain-containing protein 17 (P78536 whole entry, the tested form may be a part): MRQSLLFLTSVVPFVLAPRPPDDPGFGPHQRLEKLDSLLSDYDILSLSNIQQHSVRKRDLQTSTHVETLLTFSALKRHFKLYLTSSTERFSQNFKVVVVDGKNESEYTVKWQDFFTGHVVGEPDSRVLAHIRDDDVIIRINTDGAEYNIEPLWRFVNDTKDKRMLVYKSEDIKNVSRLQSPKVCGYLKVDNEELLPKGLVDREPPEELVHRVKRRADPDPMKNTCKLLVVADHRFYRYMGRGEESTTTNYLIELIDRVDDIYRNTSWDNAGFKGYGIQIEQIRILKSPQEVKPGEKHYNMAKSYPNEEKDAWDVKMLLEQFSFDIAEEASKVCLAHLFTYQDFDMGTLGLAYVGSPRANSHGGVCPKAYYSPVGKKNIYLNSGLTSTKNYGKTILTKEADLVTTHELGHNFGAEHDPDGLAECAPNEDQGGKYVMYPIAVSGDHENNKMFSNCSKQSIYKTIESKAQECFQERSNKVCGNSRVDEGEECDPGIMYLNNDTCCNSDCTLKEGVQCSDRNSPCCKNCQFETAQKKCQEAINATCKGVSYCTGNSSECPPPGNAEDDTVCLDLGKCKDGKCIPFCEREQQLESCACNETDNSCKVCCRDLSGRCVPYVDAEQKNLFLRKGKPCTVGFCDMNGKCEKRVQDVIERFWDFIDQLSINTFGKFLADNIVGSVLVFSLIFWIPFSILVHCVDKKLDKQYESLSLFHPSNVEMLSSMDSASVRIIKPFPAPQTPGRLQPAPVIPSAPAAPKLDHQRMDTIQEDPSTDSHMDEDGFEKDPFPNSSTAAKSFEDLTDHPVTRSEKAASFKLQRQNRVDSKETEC

**Q.** Which EC50 [1] does the source give for `COc1ccc(NC(=O)COC(=O)c2cccc(S(=O)(=O)N(C)C)c2)cc1` here?
**A.** Its EC50 is > 79.4 µM (not active).

**Q.** What about the EC50 [2] of the same molecule?
**A.** Its EC50 is > 79.4 µM (not active).

**Q.** What about the EC50 [3] of the same molecule?
**A.** The EC50 was > 79.4 µM (not active).

**Q.** Which results are given for `Clc1ccccc1Nc1nnc(-c2ccncc2)s1`?
**A.** AC50 [4]: 5.65 µM (active); AC50 [5]: 8 µM (active); EC50 [6]: > 133 µM (inactive); EC50 [7]: 2.56 µM (active); EC50 [8]: 5.43 µM (active); EC50 [9]: > 150 µM (inconclusive); AC50 [10]: 4.19 µM (active); AC50 [11]: 8.92 µM (active); EC50 [12]: 0.799 µM (active); EC50 [13]: 7.07 µM (active); AC50 [14]: 4.99 µM (active); AC50 [15]: 4.79 µM (active); EC50 [16]: > 67.5 µM (inactive)

**Q.** Which EC50 [16] does the source give for `CN(C)c1ccc2c(=O)c3ccccc3oc2n1` here?
**A.** The EC50 was > 67.6 µM (inactive).

**Q.** For `CC(=O)c1sc(NC(=O)CCS(=O)(=O)c2ccccc2)nc1C`, which EC50 [17] is on record?
**A.** Its EC50 is 0.691 µM (active).

**Q.** What about the EC50 [18] of the same molecule?
**A.** The EC50 was > 150 µM (inactive).

**Q.** And the EC50 [19]?
**A.** Its EC50 is > 91.1 µM (inactive).

**Q.** What about the EC50 [20] of the same molecule?
**A.** Its EC50 is > 180 µM (inactive).

**Q.** What about the EC50 [21] of the same molecule?
**A.** Its EC50 is > 91.1 µM (inactive).

**Q.** What about the EC50 [22] of the same molecule?
**A.** Its EC50 is > 150 µM (inactive).

**Q.** With `C[C@@H]1CCCCO[C@H](CN(C)S(=O)(=O)c2cccs2)[C@@H](C)CN([C@@H](C)CO)C(=O)c2cc(NC(=O)Nc3ccc(C(F)(F)F)cc3)ccc2O1` as the molecule, how does the AC50 [23] read?
**A.** Its AC50 is 51.6 µM (active).

**Q.** And the AC50 [24]?
**A.** The AC50 was 3.48 µM (active).

**Q.** For `CCCC#Cc1ccc([C@H]2[C@@H](CO)N3CCCCN(C(=O)NC4CCCC4)C[C@H]23)cc1`, which AC50 [25] is on record?
**A.** The AC50 was 12.6 µM (active).

**Q.** What about the AC50 [26] of the same molecule?
**A.** The AC50 was 5.27 µM (active).

**Q.** For `O=C(CC1SC(=O)N(c2ccccc2)C1=O)Nc1ccccc1` (stereo unspecified), which IC50 [27] is on record?
**A.** The IC50 was > 66 µM (inactive).

**Q.** And the IC50 [28]?
**A.** Its IC50 is > 66 µM (inactive).

**Q.** What about the IC50 [29] of the same molecule?
**A.** The IC50 was 46.7 µM (inactive).

**Q.** For `CCCCOc1ccc(CSC(=N)N)cc1Cl`, which IC50 [30] is on record?
**A.** The IC50 was > 122 µM (inactive).

**Q.** What does the source list for `C[C@H](CO)N1C[C@H](C)[C@@H](CN(C)S(=O)(=O)c2cccs2)OCCCC[C@H](C)Oc2ccc(NS(=O)(=O)c3ccc(Cl)cc3)cc2C1=O`?
**A.** AC50 [31]: 54.6 µM (active); AC50 [32]: > 70 µM (inactive); AC50 [23]: 66.4 µM (active); AC50 [24]: 3.86 µM (active); AC50 [33]: 29.4 µM (active)
